Assay results reported in patent US11524938B2, “Aromatic sulfonamide derivatives” (Bayer Pharma Aktiengesellschaft, priority 2016, dated 2022).
Values joined by “and” are separate entries in the source; they are usually repeats but may differ in a detail not shown here. Identical values can stand only once.

Target: T1, human P2X4 (Homo sapiens, UniProt Q99571)
T1 sequence (Q99571 1-388): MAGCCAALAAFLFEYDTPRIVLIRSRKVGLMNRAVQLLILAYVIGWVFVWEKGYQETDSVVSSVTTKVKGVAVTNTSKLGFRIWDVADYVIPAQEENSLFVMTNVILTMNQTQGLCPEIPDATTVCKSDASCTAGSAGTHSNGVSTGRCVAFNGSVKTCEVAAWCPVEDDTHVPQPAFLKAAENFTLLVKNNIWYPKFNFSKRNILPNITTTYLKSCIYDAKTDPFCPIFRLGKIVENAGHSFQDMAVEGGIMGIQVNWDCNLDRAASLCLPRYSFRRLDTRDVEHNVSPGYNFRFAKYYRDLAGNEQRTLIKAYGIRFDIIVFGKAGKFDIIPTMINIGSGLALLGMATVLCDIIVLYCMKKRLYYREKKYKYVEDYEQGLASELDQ
Assay: Human P2X4 HEK Cell FLIPR Assay
Format: cell-based
Details: agonist Bz-ATP at EC80; for Emax: HEK293, HEK293 cells, percentage of maximal inhibition, read-out: Human P2X4 HEK Cells (FLIPR Assay) avg Efficacy [%]; for IC50: HEK293 cells, individual values listed where some fall outside detection range
Outline: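 Calcium flux read by FLIPR for 120 sec after Bz-ATP challenge at EC80 (established each assay day), following 30 min room-temperature compound preincubation in dye-loaded stable human P2X4 HEK293 cells. Peak RFU over basal normalized to agonist control; IC50, maximal inhibition and Hill coefficient from triplicate means.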

`Cc1nnc(-c2ccc(NC(=O)Cc3ccccc3F)cc2S(N)(=O)=O)o1` [Example 525, 2-(2-Fluorophenyl)-N-[4-(5-methyl-1,3,4-oxadiazol-2-yl)-3-sulfamoylphenyl]acetamide] showed an Emax of 72% and an IC50 of 5170 nM.
`Cc1ccc(CC(=O)Nc2ccc(-c3nnc(C)o3)c(S(N)(=O)=O)c2)cc1` [Example 526, N-[4-(5-Methyl-1,3,4-oxadiazol-2-yl)-3-sulfamoylphenyl]-2-(4-methylphenyl)acetamide] gave an Emax of 51% and an IC50 of 331 nM.
`NS(=O)(=O)c1cc(NC(=O)Cc2ccccc2Cl)ccc1-c1cc[nH]c1` [Example 527, 2-(2-Chlorophenyl)-N-[4-(1H-pyrrol-3-yl)-3-sulfamoylphenyl]acetamide] showed an Emax of 86% and an IC50 of 125 nM.
With `NS(=O)(=O)c1cc(NC(=O)Cc2ccccc2Cl)ccc1-c1c[nH]c(C(=O)C(F)F)c1` [Example 528, 2-(2-Chlorophenyl)-N-{4-[5-(difluoroacetyl)-1H-pyrrol-3-yl]-3-sulfamoylphenyl}acetamide] the Emax was 95% and the IC50 was 42 nM.
`Cn1ccc(-c2ccc(NC(=O)Cc3ccccc3Cl)cc2S(N)(=O)=O)c1` [Example 529, 2-(2-Chlorophenyl)-N-[4-(1-methyl-1H-pyrrol-3-yl)-3-sulfamoylphenyl]acetamide] gave an Emax of 92% and an IC50 of 72 nM.
Work on `Cn1c(C#N)ccc1-c1ccc(NC(=O)Cc2ccccc2Cl)cc1S(N)(=O)=O` [Example 530, 2-(2-Chlorophenyl)-N-[4-(5-cyano-1-methyl-1H-pyrrol-2-yl)-3-sulfamoylphenyl]acetamide] yielded an Emax of 112% and an IC50 of 33 nM.
Work on `NS(=O)(=O)c1c(-n2cc(C(F)(F)F)cn2)ccc(NC(=O)Cc2ccccc2Cl)c1C(F)(F)F` [Example 531, 2-(2-Chlorophenyl)-N-{3-sulfamoyl-2-(trifluoromethyl)-4-[4-(trifluoromethyl)-1H-pyrazol-1-yl]phenyl}acetamide] yielded an Emax of 84% and an IC50 of 2320 nM.
For `NS(=O)(=O)c1cc(NC(=O)Cc2ccccc2Cl)c(C(F)(F)F)cc1-n1cc(C(F)(F)F)cn1` [Example 532, 2-(2-Chlorophenyl)-N-{5-sulfamoyl-2-(trifluoromethyl)-4-[4-(trifluoromethyl)-1H-pyrazol-1-yl]phenyl}acetamide], the Emax was 60% and the IC50 was 11500 nM and 12900 nM and 17000 nM.
`NS(=O)(=O)c1cc(NC(=O)Cc2cccc(C(F)(F)F)c2Cl)c(C(F)(F)F)cc1-n1cc(C(F)(F)F)cn1` [Example 533, 2-[2-Chloro-3-(trifluoromethyl)phenyl]-N-{5-sulfamoyl-2-(trifluoromethyl)-4-[4-(trifluoromethyl)-1H-pyrazol-1-yl]phenyl}acetamide] was tested, and the Emax was 26% and the IC50 was greater than 25000 nM.
Work on `NS(=O)(=O)c1cc(NC(=O)Cc2cc(C(F)(F)F)ccc2Cl)c(C(F)(F)F)cc1-n1cc(C(F)(F)F)cn1` [Example 534, 2-[2-Chloro-5-(trifluoromethyl)phenyl]-N-{5-sulfamoyl-2-(trifluoromethyl)-4-[4-(trifluoromethyl)-1H-pyrazol-1-yl]phenyl}acetamide] yielded an Emax of 17% and an IC50 greater than 25000 nM.
With `NS(=O)(=O)c1cc(NC(=O)Cc2c(Cl)cccc2C(F)(F)F)c(C(F)(F)F)cc1-n1cc(F)cn1` [Example 535, 2-[2-Chloro-6-(trifluoromethyl)phenyl]-N-[4-(4-fluoro-1H-pyrazol-1-yl)-5-sulfamoyl-2-(trifluoromethyl)phenyl]acetamide] the Emax was 91% and the IC50 was 3840 nM.
With `NS(=O)(=O)c1cc(NC(=O)Cc2cccc(C(F)(F)F)c2Cl)c(C(F)(F)F)cc1-n1cc(F)cn1` [Example 536, 2-[2-Chloro-3-(trifluoromethyl)phenyl]-N-[4-(4-fluoro-1H-pyrazol-1-yl)-5-sulfamoyl-2-(trifluoromethyl)phenyl]acetamide] the Emax was 67% and the IC50 was 12400 nM and 16800 nM.
In the case of `NS(=O)(=O)c1cc(NC(=O)Cc2cc(C(F)(F)F)ccc2Cl)c(C(F)(F)F)cc1-n1cc(F)cn1` [Example 537, 2-[2-Chloro-5-(trifluoromethyl)phenyl]-N-[4-(4-fluoro-1H-pyrazol-1-yl)-5-sulfamoyl-2-(trifluoromethyl)phenyl]acetamide], the Emax is reported as 95% and the IC50 is reported as 3620 nM.
Compound `NS(=O)(=O)c1cc(NC(=O)Cc2ccc(C(F)(F)F)cc2Cl)c(C(F)(F)F)cc1-n1cc(F)cn1` [Example 538, 2-[2-Chloro-4-(trifluoromethyl)phenyl]-N-[4-(4-fluoro-1H-pyrazol-1-yl)-5-sulfamoyl-2-(trifluoromethyl)phenyl]acetamide] has an Emax of 83% and an IC50 of 3910 nM.
`CC(C)(C)c1nn(-c2ccc(NC(=O)Cc3ccccc3Cl)cc2S(N)(=O)=O)cc1C#N` [Example 539, N-[4-(3-tert-Butyl-4-cyano-1H-pyrazol-1-yl)-3-sulfamoylphenyl]-2-(2-chlorophenyl)acetamide] gave an Emax of 103% and an IC50 of 127 nM.
In the case of `N#Cc1cn(-c2ccc(NC(=O)Cc3ccccc3Cl)cc2S(N)(=O)=O)nc1Br` [Example 540, N-[4-(3-Bromo-4-cyano-1H-pyrazol-1-yl)-3-sulfamoylphenyl]-2-(2-chlorophenyl)acetamide], the Emax is reported as 79% and the IC50 is reported as 1 nM.
Work on `NS(=O)(=O)c1cc(NC(=O)Cc2ccccc2Cl)ccc1-n1cc(Cl)c(C(F)(F)F)n1` [Example 541, 2-(2-Chlorophenyl)-N-{4-[4-chloro-3-(trifluoromethyl)-1H-pyrazol-1-yl]-3-sulfamoylphenyl}acetamide] yielded an Emax of 50% and an IC50 greater than 25000 nM.
`Cc1cn(-c2ccc(NC(=O)Cc3ccccc3Cl)cc2S(N)(=O)=O)nc1C` [Example 542, 2-(2-Chlorophenyl)-N-[4-(3,4-dimethyl-1H-pyrazol-1-yl)-3-sulfamoylphenyl]acetamide] was tested, and the Emax was 97% and the IC50 was 20 nM.
`Cc1nn(-c2ccc(NC(=O)Cc3ccccc3Cl)cc2S(N)(=O)=O)c(C)c1Cl` [Example 543, N-[4-(4-Chloro-3,5-dimethyl-1H-pyrazol-1-yl)-3-sulfamoylphenyl]-2-(2-chlorophenyl)acetamide] gave an Emax of 98% and an IC50 of 267 nM.
In the case of `NS(=O)(=O)c1cc(NC(=O)Cc2ccccc2Cl)ccc1-n1cccn1` [Example 544, 2-(2-Chlorophenyl)-N-[4-(1H-pyrazol-1-yl)-3-sulfamoylphenyl]acetamide], the Emax is reported as 85% and the IC50 is reported as 1 nM.
`Cc1cc(C#N)nn1-c1ccc(NC(=O)Cc2ccccc2Cl)cc1S(N)(=O)=O` [Example 545, 2-(2-Chlorophenyl)-N-[4-(3-cyano-5-methyl-1H-pyrazol-1-yl)-3-sulfamoylphenyl]acetamide] was tested, and the Emax was 100% and the IC50 was 19 nM.
`Cc1cc(O)nn1-c1ccc(NC(=O)Cc2ccccc2Cl)cc1S(N)(=O)=O` [Example 546, 2-(2-Chlorophenyl)-N-[4-(3-hydroxy-5-methyl-1H-pyrazol-1-yl)-3-sulfamoylphenyl]acetamide] gave an Emax of 75% and an IC50 of 97 nM.
Work on `Cc1c(C#N)cnn1-c1ccc(NC(=O)Cc2ccccc2Cl)cc1S(N)(=O)=O` [Example 547, 2-(2-Chlorophenyl)-N-[4-(4-cyano-5-methyl-1H-pyrazol-1-yl)-3-sulfamoylphenyl]acetamide] yielded an Emax of 94% and an IC50 of 60 nM.
In the case of `Cc1nn(-c2ccc(NC(=O)Cc3ccccc3Cl)cc2S(N)(=O)=O)cc1C#N` [Example 548, 2-(2-Chlorophenyl)-N-[4-(4-cyano-3-methyl-1H-pyrazol-1-yl)-3-sulfamoylphenyl]acetamide], the Emax is reported as 94% and the IC50 is reported as 5 nM.
In the case of `NS(=O)(=O)c1cc(NC(=O)Cc2ccccc2Cl)ccc1-c1nc(N2CCOCC2)cs1` [Example 549, 2-(2-Chlorophenyl)-N-{4-[4-(morpholin-4-yl)-1,3-thiazol-2-yl]-3-sulfamoylphenyl}acetamide], the Emax is reported as 85% and the IC50 is reported as 8 nM.
For `NS(=O)(=O)c1cc(NC(=O)Cc2ccccc2Cl)ccc1-c1ncc(N2CCOCC2)s1` [Example 550, 2-(2-Chlorophenyl)-N-{4-[5-(morpholin-4-yl)-1,3-thiazol-2-yl]-3-sulfamoylphenyl}acetamide], the Emax was 87% and the IC50 was 1 nM.
With `NS(=O)(=O)c1cc(NC(=O)Cc2ccccc2Cl)ccc1-c1ccncc1` [Example 552, 2-(2-Chlorophenyl)-N-[4-(pyridin-4-yl)-3-sulfamoylphenyl]acetamide] the Emax was 88% and the IC50 was 1 nM.
`NC(=O)c1cnn(-c2ccc(NC(=O)Cc3ccccc3Cl)cc2S(N)(=O)=O)c1` [Example 553, 1-(4-{[(2-Chlorophenyl)acetyl]amino}-2-sulfamoylphenyl)-1H-pyrazole-4-carboxamide] gave an Emax of 82% and an IC50 of 5 nM.
Work on `N#Cc1cnn(-c2ccc(NC(=O)Cc3cccc(O)c3Cl)cc2S(N)(=O)=O)c1` [Example 554, 2-(2-Chloro-3-hydroxyphenyl)-N-[4-(4-cyano-1H-pyrazol-1-yl)-3-sulfamoylphenyl]acetamide] yielded an Emax of 83% and an IC50 of 383 nM.
`N#Cc1cnn(-c2ccc(NC(=O)Cc3ccc(O)cc3Cl)cc2S(N)(=O)=O)c1` [Example 555, 2-(2-Chloro-4-hydroxyphenyl)-N-[4-(4-cyano-1H-pyrazol-1-yl)-3-sulfamoylphenyl]acetamide] was tested, and the Emax was 94% and the IC50 was 22 nM.
In the case of `N#Cc1cnn(-c2ccc(NC(=O)Cc3cc(O)ccc3Cl)cc2S(N)(=O)=O)c1` [Example 556, 2-(2-Chloro-5-hydroxyphenyl)-N-[4-(4-cyano-1H-pyrazol-1-yl)-3-sulfamoylphenyl]acetamide], the Emax is reported as 94% and the IC50 is reported as 65 nM.
